Data on ten compounds can be found in PubChem BioAssay (NCI).

Among the test systems are EKVX NSCLC; HS 578T breast; KM12 colon; MOLT-4 leukemia; NCI-H226 lung; NCI-H460 lung; SN12C renal; SNB-19 CNS; SNB-75 CNS; UACC-257 melanoma.
What all share (experiment): growth of human tumour cells (NCI), 48 h

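Where inhibition never reached the appropriate level, the endpoint shown equals the highest concentration tested. Otherwise, values were interpolated linearly from a five-concentration, 48-hour dose response in 96-well plates. GI50 marks 50% less growth. The concentration for full growth arrest is given as TGI.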

On to `O=c1oc2cc(N=Cc3ccccc3Cl)ccc2c2ccccc12`, for which the TGI with EKVX NSCLC, in the experiment with HS 578T breast, in the experiment on KM12 colon, in the experiment on MOLT-4 leukemia, in the experiment on NCI-H226 lung and with NCI-H460 lung was over 100 µM each time. The TGI in the experiment on SN12C renal, with SNB-19 CNS, with SNB-75 CNS and in the experiment on UACC-257 melanoma was over 100 µM throughout.
Take `COc1ccc(C(C#N)NC23CC4CC(CC(C4)C2)C3)cc1OC` (stereo not given): the TGI in the experiment with EKVX NSCLC, in the experiment with HS 578T breast, with KM12 colon, with MOLT-4 leukemia, in the experiment on NCI-H226 lung and in the experiment on NCI-H460 lung was over 100 µM each time. In addition, the TGI with SN12C renal, with SNB-19 CNS, in the experiment with SNB-75 CNS and with UACC-257 melanoma was over 100 µM throughout.
On to `COc1ccc(-c2nn(-c3ccc(NC(=O)c4ccc(Cl)c(C(F)(F)F)c4)cc3)cc2-c2ccncc2)cc1Cl`, for which the GI50 is 1.87 µM in the experiment with EKVX NSCLC; 0.201 µM with HS 578T breast; 0.514 µM with KM12 colon; 0.388 µM with MOLT-4 leukemia; 4.75 µM in the experiment with NCI-H226 lung; 0.441 µM with NCI-H460 lung. Further, the GI50 is 2.34 µM in the experiment with SN12C renal, 1.96 µM with SNB-19 CNS, 0.287 µM in the experiment with SNB-75 CNS and 4.68 µM with UACC-257 melanoma. The TGI in the experiment with EKVX NSCLC is over 100 µM; with HS 578T breast it was 0.696 µM; with KM12 colon it was over 100 µM; in the experiment on MOLT-4 leukemia, over 100 µM; with NCI-H226 lung, over 100 µM; in the experiment with NCI-H460 lung it was over 100 µM. The TGI is over 100 µM in the experiment on SN12C renal, over 100 µM with SNB-19 CNS, 6.42 µM with SNB-75 CNS and over 94.9 µM with UACC-257 melanoma.
As for `O=C(/C=C/c1ccccc1)c1c[nH]c2ccccc2c1=O`, the GI50 was 3.95 µM in the experiment on EKVX NSCLC; 2.32 µM with HS 578T breast; 3.37 µM in the experiment on KM12 colon; 3.16 µM with MOLT-4 leukemia; 4.81 µM in the experiment with NCI-H226 lung; 2.06 µM in the experiment on NCI-H460 lung. The GI50 in the experiment on SN12C renal was 3.54 µM; in the experiment with SNB-19 CNS, 4.68 µM; in the experiment with SNB-75 CNS, 3.1 µM; in the experiment on UACC-257 melanoma, 3.56 µM. Further, the TGI with EKVX NSCLC came out at 20.1 µM; in the experiment with HS 578T breast, 6.34 µM; in the experiment with KM12 colon it was 11 µM; in the experiment with MOLT-4 leukemia, 20.8 µM; in the experiment on NCI-H226 lung, 17.3 µM; in the experiment on NCI-H460 lung it was 5.09 µM. Further, the TGI came to 15.5 µM in the experiment on SN12C renal, 20.5 µM with SNB-19 CNS, 12 µM in the experiment with SNB-75 CNS and 15.1 µM in the experiment with UACC-257 melanoma.
For the compound `Oc1c(C(Nc2cccc3ccccc23)c2ccccc2)ccc2cccnc12` (stereo not given), the GI50 in the experiment with EKVX NSCLC is 2.93 µM; in the experiment on HS 578T breast, 7.37 µM; with KM12 colon, 5.03 µM; with MOLT-4 leukemia, 2.41 µM; with NCI-H226 lung, 2.17 µM; with NCI-H460 lung it was 2.07 µM. The GI50 was 4.1 µM in the experiment on SN12C renal, 5.64 µM with SNB-19 CNS, 5.67 µM in the experiment with SNB-75 CNS and 2.88 µM with UACC-257 melanoma. In addition, the TGI with EKVX NSCLC was 41.1 µM; with HS 578T breast, over 100 µM; in the experiment with KM12 colon it was over 100 µM; in the experiment on MOLT-4 leukemia it was over 100 µM; with NCI-H226 lung, 8.06 µM; in the experiment on NCI-H460 lung, 18.5 µM. The TGI is over 100 µM in the experiment on SN12C renal, over 100 µM in the experiment on SNB-19 CNS, over 100 µM in the experiment with SNB-75 CNS and 9.28 µM in the experiment on UACC-257 melanoma.
Turning to `N#CC(C#N)=Cc1c(-c2ccccc2)[nH]c2ccccc12`, the GI50 in the experiment on EKVX NSCLC is 5.81 µM; with HS 578T breast, 2.31 µM; with KM12 colon it was 0.66 µM; with MOLT-4 leukemia, 13.3 µM; with NCI-H226 lung, 3.84 µM; in the experiment with NCI-H460 lung, 2.02 µM. Also, the GI50 is 5.82 µM in the experiment on SN12C renal, 5.71 µM in the experiment on SNB-19 CNS, 2 µM with SNB-75 CNS and 23.9 µM in the experiment with UACC-257 melanoma. Further, the TGI in the experiment with EKVX NSCLC is over 86.4 µM; in the experiment with HS 578T breast, 8.49 µM; with KM12 colon it was 27.5 µM; with MOLT-4 leukemia, over 75.1 µM; in the experiment with NCI-H226 lung it was over 41.4 µM; with NCI-H460 lung, over 39.8 µM. In addition, the TGI with SN12C renal was over 73.3 µM; in the experiment with SNB-19 CNS it was over 100 µM; in the experiment on SNB-75 CNS, 14.3 µM; in the experiment on UACC-257 melanoma it was over 64.7 µM.
Regarding `Cc1cc(=O)oc2c(CN3CCCCC3)c(O)ccc12`, the TGI in the experiment on EKVX NSCLC, in the experiment with HS 578T breast, in the experiment with MOLT-4 leukemia, in the experiment on NCI-H226 lung, in the experiment with NCI-H460 lung and with SN12C renal was over 100 µM throughout. Moreover, the TGI in the experiment with SNB-19 CNS, in the experiment with SNB-75 CNS and in the experiment with UACC-257 melanoma was over 100 µM each time.
In the case of `O=C1c2ccccc2NC(c2cc(Cl)cc(Cl)c2O)N1CCc1ccccn1` (stereo not given), the TGI in the experiment with EKVX NSCLC, in the experiment on HS 578T breast, in the experiment on KM12 colon, in the experiment with NCI-H226 lung, with NCI-H460 lung and in the experiment on SN12C renal was over 100 µM throughout. Further, the TGI with SNB-19 CNS, in the experiment on SNB-75 CNS and in the experiment on UACC-257 melanoma was over 100 µM throughout.
Take `CC(N=C(N)N)C(=O)O` (stereo not given): the TGI in the experiment on EKVX NSCLC, with HS 578T breast, in the experiment on KM12 colon, in the experiment on MOLT-4 leukemia, with NCI-H226 lung and with SN12C renal was over 100 µM each time. The TGI in the experiment on SNB-19 CNS, with SNB-75 CNS and in the experiment with UACC-257 melanoma was over 100 µM each time.
For the compound `COc1cccc(C(=O)Nc2ccc(CN3CCc4nc5cc(OC)c(OC)cc5cc43)cc2)c1`, the GI50 was 3.87 µM with HS 578T breast; 2.09 µM in the experiment with KM12 colon; 2.85 µM in the experiment with MOLT-4 leukemia; 5.69 µM in the experiment with NCI-H226 lung; 2.84 µM with NCI-H460 lung; 3.9 µM with SN12C renal. In addition, the values for the GI50 in the experiment on SNB-19 CNS, in the experiment on SNB-75 CNS and in the experiment on UACC-257 melanoma were 8.12 µM, 2.66 µM and 5.47 µM, respectively. Further, the TGI in the experiment with HS 578T breast was 34 µM; with KM12 colon, 5.29 µM; in the experiment with MOLT-4 leukemia it was 10.7 µM; in the experiment on NCI-H226 lung it was over 100 µM; in the experiment on NCI-H460 lung, 8.71 µM; in the experiment on SN12C renal, 16.4 µM. Moreover, the TGI was over 100 µM in the experiment with SNB-19 CNS, over 100 µM in the experiment on SNB-75 CNS and 92.6 µM in the experiment on UACC-257 melanoma.
